Legend:
Test in all cases: Carna kinome panel
Format in all cases: biochemical
WNK1 = WNK1 (Homo sapiens (Human), UniProt Q9H4A3); conditions: read-out: % Inhibition at 10 μM of the test compound
ITK = ITK (Homo sapiens (Human), UniProt Q08881); conditions: read-out: % Inhibition at 10 μM of the test compound
PAK1 = PAK1 (Homo sapiens (Human), UniProt Q13153); conditions: read-out: % Inhibition at 10 μM of the test compound
TRKA = TRKA (Homo sapiens (Human), UniProt P04629); conditions: read-out: % Inhibition at 10 μM of the test compound
Chain of TRKA (P04629 33-796): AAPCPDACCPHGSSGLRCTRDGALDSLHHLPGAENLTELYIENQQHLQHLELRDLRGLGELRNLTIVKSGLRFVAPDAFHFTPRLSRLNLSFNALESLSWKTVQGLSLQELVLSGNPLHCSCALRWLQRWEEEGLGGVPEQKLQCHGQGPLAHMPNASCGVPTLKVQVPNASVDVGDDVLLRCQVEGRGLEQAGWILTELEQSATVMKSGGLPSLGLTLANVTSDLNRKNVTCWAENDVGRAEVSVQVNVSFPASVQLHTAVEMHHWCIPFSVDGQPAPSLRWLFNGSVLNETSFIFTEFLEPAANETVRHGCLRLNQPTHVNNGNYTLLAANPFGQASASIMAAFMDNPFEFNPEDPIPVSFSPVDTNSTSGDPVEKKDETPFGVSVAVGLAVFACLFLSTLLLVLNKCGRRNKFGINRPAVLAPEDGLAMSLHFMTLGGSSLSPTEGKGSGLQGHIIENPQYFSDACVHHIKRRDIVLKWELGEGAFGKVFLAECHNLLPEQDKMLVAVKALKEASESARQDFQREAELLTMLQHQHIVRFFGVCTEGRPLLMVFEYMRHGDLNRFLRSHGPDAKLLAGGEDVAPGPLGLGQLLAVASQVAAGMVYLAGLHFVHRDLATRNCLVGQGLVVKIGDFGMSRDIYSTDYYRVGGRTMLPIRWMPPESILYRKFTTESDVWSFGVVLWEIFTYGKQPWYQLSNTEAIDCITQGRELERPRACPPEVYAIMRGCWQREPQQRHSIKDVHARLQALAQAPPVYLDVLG

PLK2 = PLK2 (Homo sapiens (Human), UniProt Q9NYY3); conditions: read-out: % Inhibition at 10 μM of the test compound
JNK2 = JNK2 (Homo sapiens (Human), UniProt P45984); conditions: read-out: % Inhibition at 10 μM of the test compound
TIE2 = TIE2 (Homo sapiens (Human), UniProt Q02763); conditions: read-out: % Inhibition at 10 μM of the test compound
NEK4 = NEK4 (Homo sapiens (Human), UniProt P51957); conditions: read-out: % Inhibition at 10 μM of the test compound
TSSK3 = TSSK3 (Homo sapiens (Human), UniProt Q96PN8); conditions: read-out: % Inhibition at 10 μM of the test compound
TBK1 = TBK1 (Homo sapiens (Human), UniProt Q9UHD2); conditions: read-out: % Inhibition at 10 μM of the test compound
Chain of TBK1 (Q9UHD2 whole entry): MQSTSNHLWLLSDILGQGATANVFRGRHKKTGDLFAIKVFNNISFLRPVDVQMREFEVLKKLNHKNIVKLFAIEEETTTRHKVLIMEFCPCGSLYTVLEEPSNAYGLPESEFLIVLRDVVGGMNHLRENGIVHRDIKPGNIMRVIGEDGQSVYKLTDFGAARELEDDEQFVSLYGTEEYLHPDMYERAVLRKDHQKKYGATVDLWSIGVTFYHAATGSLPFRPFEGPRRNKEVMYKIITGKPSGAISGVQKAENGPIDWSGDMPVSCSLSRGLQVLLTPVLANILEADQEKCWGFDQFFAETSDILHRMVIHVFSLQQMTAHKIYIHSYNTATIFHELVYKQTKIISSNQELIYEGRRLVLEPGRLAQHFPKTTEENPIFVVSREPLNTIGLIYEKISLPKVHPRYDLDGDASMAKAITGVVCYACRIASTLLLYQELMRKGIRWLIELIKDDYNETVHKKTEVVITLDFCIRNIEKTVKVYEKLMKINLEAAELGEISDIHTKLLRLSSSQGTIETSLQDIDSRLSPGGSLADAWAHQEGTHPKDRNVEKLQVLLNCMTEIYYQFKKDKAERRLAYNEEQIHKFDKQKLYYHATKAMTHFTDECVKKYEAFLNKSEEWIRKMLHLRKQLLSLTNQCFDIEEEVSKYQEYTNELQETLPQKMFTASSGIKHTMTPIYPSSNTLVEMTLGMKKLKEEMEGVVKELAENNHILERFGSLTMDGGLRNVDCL

AurB = AurB (Homo sapiens (Human), UniProt Q96GD4); conditions: read-out: % Inhibition at 10 μM of the test compound
BRAF_Cascade = BRAF_Cascade (Homo sapiens (Human), UniProt P15056); conditions: read-out: % Inhibition at 10 μM of the test compound
skMLCK = skMLCK (Homo sapiens (Human), UniProt Q9H1R3); conditions: read-out: % Inhibition at 10 μM of the test compound
NEK2 = NEK2 (Homo sapiens (Human), UniProt P51955); conditions: read-out: % Inhibition at 10 μM of the test compound
SPHK1 = SPHK1 (Homo sapiens (Human), UniProt Q9NYA1); conditions: read-out: % Inhibition at 10 μM of the test compound
DYRK3 = DYRK3 (Homo sapiens (Human), UniProt O43781); conditions: read-out: % Inhibition at 10 μM of the test compound
Erk1 = Erk1 (Homo sapiens (Human), UniProt P27361); conditions: read-out: % Inhibition at 10 μM of the test compound
CHK2 = CHK2 (Homo sapiens (Human), UniProt O96017); conditions: read-out: % Inhibition at 10 μM of the test compound
MLK1_Cascade = MLK1_Cascade (Homo sapiens (Human), UniProt P80192); conditions: read-out: % Inhibition at 10 μM of the test compound
DDR1 = DDR1 (Homo sapiens (Human), UniProt Q08345); conditions: read-out: % Inhibition at 10 μM of the test compound
PDGFRβ = PDGFRβ (Homo sapiens (Human), UniProt P09619); conditions: read-out: % Inhibition at 10 μM of the test compound
ABL(T315I) = ABL(T315I) (Homo sapiens (Human), UniProt P00519, T315I); conditions: read-out: % Inhibition at 10 μM of the test compound
CGK2 = CGK2 (Homo sapiens (Human), UniProt Q13237); conditions: read-out: % Inhibition at 10 μM of the test compound
BMX = BMX (Homo sapiens (Human), UniProt P51813); conditions: read-out: % Inhibition at 10 μM of the test compound
Chain of BMX (P51813 whole entry): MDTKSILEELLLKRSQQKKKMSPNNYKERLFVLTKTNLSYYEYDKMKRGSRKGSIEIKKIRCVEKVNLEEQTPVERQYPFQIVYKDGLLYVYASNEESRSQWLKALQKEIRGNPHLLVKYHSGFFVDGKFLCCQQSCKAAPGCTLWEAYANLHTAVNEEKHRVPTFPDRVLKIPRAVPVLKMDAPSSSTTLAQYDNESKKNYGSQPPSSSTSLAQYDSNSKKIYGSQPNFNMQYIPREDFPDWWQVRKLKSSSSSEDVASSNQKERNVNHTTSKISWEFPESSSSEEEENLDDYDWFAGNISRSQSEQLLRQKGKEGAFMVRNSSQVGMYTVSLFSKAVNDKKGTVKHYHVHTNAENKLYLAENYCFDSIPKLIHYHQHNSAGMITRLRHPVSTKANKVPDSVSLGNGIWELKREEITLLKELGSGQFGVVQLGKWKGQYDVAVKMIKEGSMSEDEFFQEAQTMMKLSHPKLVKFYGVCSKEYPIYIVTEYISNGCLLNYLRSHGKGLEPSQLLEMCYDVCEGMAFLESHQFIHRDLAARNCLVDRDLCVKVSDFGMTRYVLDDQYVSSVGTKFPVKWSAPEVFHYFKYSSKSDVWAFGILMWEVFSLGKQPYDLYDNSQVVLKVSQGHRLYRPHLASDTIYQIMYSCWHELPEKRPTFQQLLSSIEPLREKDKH

COT_Cascade = test system: COT_Cascade
Experimental: (§1) Briefly, a selection of compounds was screened against a panel of kinases at a single concentration of 10 μM. […] This was completed using one of two assays, depending on the kinase being examined: 1) IMAP Assay. A solution of 4× inhibitor, 4× substrate/ATP/metal solution and 2× kinase solution was prepared with assay buffer (20 mM HEPES, 0.01% Tween-20, 2 mM DTT, pH 7.4) and mixed, then incubated in 384-well black plates for 1 hour at room temperature. The IMAP binding reagent (IMAP Screening Express kit; Molecular Devices) was added to each well and incubated for 30 minutes. […] 2) Off-Chip Mobility Shift Assay (MSA). A solution of 4× inhibitor, 4× substrate/ATP/metal solution and 2× kinase solution was prepared with assay buffer (20 mM HEPES, 0.01% Triton X-100, 2 mM DTT, pH 7.5) and mixed, then incubated in 384-well plates for 1 or 5 hours depending on the kinase, at room temperature. Termination buffer (QuickScout Screening assist MSA; Carna Biosciences) was added to each well. The entire reaction mixture was then applied to a LabChip3000 system (Caliper Life Science), and the product and substrate peptide peaks were separated and quantified. […] The entire reaction mixture was then applied to a LabChip3000 system (Caliper Life Science), and the product and substrate peptide peaks were separated and quantified.

PKD3 = PKD3 (Homo sapiens (Human), UniProt O94806); conditions: read-out: % Inhibition at 10 μM of the test compound
EGFR(d746-750) = EGFR(d746-750) (Homo sapiens (Human), UniProt P00533, DEL746-750); conditions: read-out: % Inhibition at 10 μM of the test compound
NuaK2 = NuaK2 (Homo sapiens (Human), UniProt Q9H093); conditions: read-out: % Inhibition at 10 μM of the test compound
CK1δ = CK1δ (Homo sapiens (Human), UniProt P48730); conditions: read-out: % Inhibition at 10 μM of the test compound
EPHB1 = EPHB1 (Homo sapiens (Human), UniProt P54762); conditions: read-out: % Inhibition at 10 μM of the test compound
IGF1R = IGF1R (Homo sapiens (Human), UniProt P08069); conditions: read-out: % Inhibition at 10 μM of the test compound
RSK1 = RSK1 (Homo sapiens (Human), UniProt Q15418); conditions: read-out: % Inhibition at 10 μM of the test compound
CSK = CSK (Homo sapiens (Human), UniProt P41240); conditions: read-out: % Inhibition at 10 μM of the test compound
MAP2K1_Cascade = test system: MAP2K1_Cascade
Experimental: as §1

Erk2 = Erk2 (Homo sapiens (Human), UniProt P28482); conditions: read-out: % Inhibition at 10 μM of the test compound
MAP2K5_Cascade = MAP2K5_Cascade (Homo sapiens (Human), UniProt Q13163); conditions: read-out: % Inhibition at 10 μM of the test compound
SRM = SRM (Homo sapiens (Human), UniProt Q9H3Y6); conditions: read-out: % Inhibition at 10 μM of the test compound
Chain of SRM (Q9H3Y6 whole entry): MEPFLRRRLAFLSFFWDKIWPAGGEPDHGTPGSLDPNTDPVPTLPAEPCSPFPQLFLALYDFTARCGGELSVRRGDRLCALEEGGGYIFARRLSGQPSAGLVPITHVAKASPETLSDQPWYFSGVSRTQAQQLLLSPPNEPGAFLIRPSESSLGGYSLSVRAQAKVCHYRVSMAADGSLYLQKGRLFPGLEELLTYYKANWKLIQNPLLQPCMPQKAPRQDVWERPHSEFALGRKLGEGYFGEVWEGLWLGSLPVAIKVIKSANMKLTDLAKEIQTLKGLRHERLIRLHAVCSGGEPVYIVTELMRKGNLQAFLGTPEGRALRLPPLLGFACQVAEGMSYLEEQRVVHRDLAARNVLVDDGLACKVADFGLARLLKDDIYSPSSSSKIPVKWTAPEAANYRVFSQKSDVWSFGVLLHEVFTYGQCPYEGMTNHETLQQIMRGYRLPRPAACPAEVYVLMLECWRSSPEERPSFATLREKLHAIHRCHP

FRK = FRK (Homo sapiens (Human), UniProt P42685); conditions: read-out: % Inhibition at 10 μM of the test compound
CDK7/CycH/MAT1 = CDK7/CycH/MAT1 (Homo sapiens (Human), UniProt P50613); conditions: read-out: % Inhibition at 10 μM of the test compound
CAMK1α = CAMK1α (Homo sapiens (Human), UniProt Q14012); conditions: read-out: % Inhibition at 10 μM of the test compound
EPHA6 = EPHA6 (Homo sapiens (Human), UniProt Q9UF33); conditions: read-out: % Inhibition at 10 μM of the test compound
Experimental: as §1

Chain of WNK1 (Q9H4A3 whole entry): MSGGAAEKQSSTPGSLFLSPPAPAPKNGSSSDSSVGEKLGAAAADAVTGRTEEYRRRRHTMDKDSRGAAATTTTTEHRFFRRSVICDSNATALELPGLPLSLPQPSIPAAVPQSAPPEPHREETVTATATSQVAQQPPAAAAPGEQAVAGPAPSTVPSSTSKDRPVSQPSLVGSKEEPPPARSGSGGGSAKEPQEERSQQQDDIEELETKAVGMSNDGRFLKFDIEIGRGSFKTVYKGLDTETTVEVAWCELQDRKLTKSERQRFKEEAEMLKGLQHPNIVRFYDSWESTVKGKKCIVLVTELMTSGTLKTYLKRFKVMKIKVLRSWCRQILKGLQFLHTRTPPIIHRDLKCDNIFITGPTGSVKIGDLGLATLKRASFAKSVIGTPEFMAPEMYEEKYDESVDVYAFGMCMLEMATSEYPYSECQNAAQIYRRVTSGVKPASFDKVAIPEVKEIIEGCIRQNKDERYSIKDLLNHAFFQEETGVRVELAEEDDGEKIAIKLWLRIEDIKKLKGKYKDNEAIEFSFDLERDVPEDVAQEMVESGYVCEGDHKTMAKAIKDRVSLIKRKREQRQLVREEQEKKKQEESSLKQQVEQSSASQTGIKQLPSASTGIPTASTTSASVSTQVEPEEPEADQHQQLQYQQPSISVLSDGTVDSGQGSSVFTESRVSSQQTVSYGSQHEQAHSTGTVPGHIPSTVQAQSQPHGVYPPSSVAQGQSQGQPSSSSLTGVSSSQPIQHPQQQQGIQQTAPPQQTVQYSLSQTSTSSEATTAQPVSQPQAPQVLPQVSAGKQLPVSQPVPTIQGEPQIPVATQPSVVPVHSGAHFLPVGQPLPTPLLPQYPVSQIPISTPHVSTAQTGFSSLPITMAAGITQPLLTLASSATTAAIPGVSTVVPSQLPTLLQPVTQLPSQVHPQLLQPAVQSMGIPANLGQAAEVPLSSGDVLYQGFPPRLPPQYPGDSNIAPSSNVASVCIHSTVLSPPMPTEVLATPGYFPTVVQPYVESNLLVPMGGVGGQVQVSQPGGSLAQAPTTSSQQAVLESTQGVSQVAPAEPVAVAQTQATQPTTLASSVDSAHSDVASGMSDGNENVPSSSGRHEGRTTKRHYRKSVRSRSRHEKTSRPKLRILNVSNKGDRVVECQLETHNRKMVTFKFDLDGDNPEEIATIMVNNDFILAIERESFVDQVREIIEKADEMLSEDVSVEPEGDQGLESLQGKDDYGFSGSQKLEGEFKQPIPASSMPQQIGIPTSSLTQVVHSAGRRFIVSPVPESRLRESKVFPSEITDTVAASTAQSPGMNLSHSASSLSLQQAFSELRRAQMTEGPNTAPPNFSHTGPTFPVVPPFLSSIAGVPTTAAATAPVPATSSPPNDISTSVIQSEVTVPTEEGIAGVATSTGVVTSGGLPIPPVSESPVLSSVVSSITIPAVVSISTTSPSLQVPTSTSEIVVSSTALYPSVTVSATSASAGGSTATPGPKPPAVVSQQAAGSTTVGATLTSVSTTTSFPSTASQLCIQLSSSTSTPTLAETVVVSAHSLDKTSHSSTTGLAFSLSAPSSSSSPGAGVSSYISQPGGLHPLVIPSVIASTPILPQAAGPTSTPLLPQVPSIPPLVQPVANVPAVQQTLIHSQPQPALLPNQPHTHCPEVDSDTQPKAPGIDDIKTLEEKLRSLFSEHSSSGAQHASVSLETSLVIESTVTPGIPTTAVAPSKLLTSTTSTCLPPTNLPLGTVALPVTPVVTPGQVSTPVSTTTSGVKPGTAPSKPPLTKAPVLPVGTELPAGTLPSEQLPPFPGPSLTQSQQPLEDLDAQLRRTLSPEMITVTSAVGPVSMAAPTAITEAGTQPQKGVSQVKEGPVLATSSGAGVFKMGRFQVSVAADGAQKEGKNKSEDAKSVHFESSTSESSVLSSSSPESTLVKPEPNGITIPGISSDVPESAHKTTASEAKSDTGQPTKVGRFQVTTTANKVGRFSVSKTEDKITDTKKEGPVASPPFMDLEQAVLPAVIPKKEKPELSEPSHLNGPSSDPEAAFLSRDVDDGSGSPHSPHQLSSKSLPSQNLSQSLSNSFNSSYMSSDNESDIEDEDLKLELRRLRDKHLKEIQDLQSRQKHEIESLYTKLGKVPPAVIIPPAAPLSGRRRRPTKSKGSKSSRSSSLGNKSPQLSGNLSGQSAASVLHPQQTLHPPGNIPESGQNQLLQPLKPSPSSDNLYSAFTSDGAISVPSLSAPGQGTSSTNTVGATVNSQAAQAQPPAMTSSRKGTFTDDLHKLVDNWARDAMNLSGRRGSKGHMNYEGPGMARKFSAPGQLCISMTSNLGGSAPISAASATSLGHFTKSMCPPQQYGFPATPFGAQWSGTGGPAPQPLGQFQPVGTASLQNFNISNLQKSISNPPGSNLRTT

Structure (SMILES): CCC1(c2ccccc2)C2=C(CC(C)(C)CC2=O)Nc2ncsc21 (centres unmarked) [Compound 1, 9-Ethyl-6,6-dimethyl-9-phenyl-5,6,7,9-tetrahydrothiazolo[4,5-b]quinolin-8(4H)-one]
- inhibition at 10 µM (WNK1): -2.1%
- inhibition at 10 µM (ITK): 0%
- inhibition at 10 µM (PAK1): 0.3%
- inhibition at 10 µM (TRKA): 5.4%
- inhibition at 10 µM (PLK2): 1.7%
- inhibition at 10 µM (JNK2): -1.5%
- inhibition at 10 µM (TIE2): 11.1%
- inhibition at 10 µM (NEK4): -2.5%
- inhibition at 10 µM (TSSK3): -5.1%
- inhibition at 10 µM (TBK1): -5.3%
- inhibition at 10 µM (AurB): -0.4%
- inhibition at 10 µM (BRAF_Cascade): 6.2%
- inhibition at 10 µM (skMLCK): 9.7%
- inhibition at 10 µM (NEK2): 0.9%
- inhibition at 10 µM (SPHK1): -6.5%
- inhibition at 10 µM (DYRK3): 0.3%
- inhibition at 10 µM (Erk1): 5.6%
- inhibition at 10 µM (CHK2): 3.3%
- inhibition at 10 µM (MLK1_Cascade): 7.5%
- inhibition at 10 µM (DDR1): 1.4%
- inhibition at 10 µM (PDGFRβ): 2.5%
- inhibition at 10 µM (ABL(T315I)): 0.4%
- inhibition at 10 µM (CGK2): -1.6%
- inhibition at 10 µM (BMX): -10.6%
- % Inhibition at 10 μM of the test compound (COT_Cascade): −1.5%
- inhibition at 10 µM (PKD3): 2.7%
- inhibition at 10 µM (EGFR(d746-750)): -6.1%
- inhibition at 10 µM (NuaK2): 1.5%
- inhibition at 10 µM (CK1δ): 8.2%
- inhibition at 10 µM (EPHB1): -0.4%
- inhibition at 10 µM (IGF1R): 2%
- inhibition at 10 µM (RSK1): -2%
- inhibition at 10 µM (CSK): 6.1%
- % Inhibition at 10 μM of the test compound (MAP2K1_Cascade): −3.2%
- inhibition at 10 µM (Erk2): 0.5%
- inhibition at 10 µM (MAP2K5_Cascade): 4.3%
- inhibition at 10 µM (SRM): -15.1%
- inhibition at 10 µM (FRK): 8.4%
- inhibition at 10 µM (CDK7/CycH/MAT1): 22.6%
- inhibition at 10 µM (CAMK1α): -2.6%
- inhibition at 10 µM (EPHA6): 21.3%
